Test results published in US20240315243A1, “A COMBINATION OF FLU[…] SEAWEED EXTRACT” (priority 2021, published 2024).

Assays:
Helicoverpa armigera [1] = experiment: Whole plant greenhouse assay, 3-way mixture, Helicoverpa armigera; conditions: tomato plants, 3rd instar larva, 72 hours; flubendiamide 30 GAH, profenofos 480 GAH, Ascophyllum Nodosum 120 GAH, solo or mixtures (1:16, 4:1, 1:16:4)
Method: (§1) The action expected for a given combination of two or three active components can be calculated as follows: […]
(§2) The experiments were carried out to study synergies if any in terms of the use of insecticides (Flubendiamide & Profenofos) and Ascophyllum Nodosum extract mixture at ratio 1:16:4 and 1:16:6 for the control of insect pest and phytotonic effect, if any.
(§3) The whole plant assay was conducted in the greenhouse, in which the desired quantity of the compounds (Flubendiamide, Profenofos and Ascophyllum Nodosum extract) and mixture in the ratio of 1:16:4 and 1:16:6 were prepared. 40-45 days old tomato plants were used for the treatments. Prepared compounds (Table 7) were sprayed in the booth of Generation III research sprayer (to obtain uniformity in spray) with a delivery rate of about 500 L/hectare of spray solution through flat fan nozzle. After the treatment, the plants were allowed to dry and then moved to the laboratory. The treated plants were covered with a mylar sheet for restricting the larval movement. Single starved 3rd instar larva was released on to the plants individually and mylar sheet was covered at the top with a muslin cloth for better air ventilation. The observation on dead, moribund and alive larvae was recorded at 72 hours after the treatment.

Spodoptera litura [2] = experiment: Whole plant greenhouse assay, 3-way mixture, Spodoptera litura; conditions: tomato plants, 3rd instar larva, 72 hours; flubendiamide 30 GAH, profenofos 480 GAH, Ascophyllum Nodosum 120 GAH, solo or mixtures (1:16, 1:4, 4:1, 1:16:4)
Method: as §1, §2
as §3, with “and mylar was covered” for “and mylar sheet was covered”

Thrips = experiment: Whole plant greenhouse assay, 3-way mixture, Thrips; conditions: brinjal plants, thrips nymph, 72 hours; flubendiamide 30 GAH, profenofos 480 GAH, Ascophyllum Nodosum 120 GAH, solo or mixtures (1:16, 1:4, 4:1, 1:16:4)
Method: as §1, §2
as §3, with “days old brinjal plants were” for “days old tomato plants were”, “larval movement. Nymph of thrips was released” for “larval movement. Single starved 3rd instar larva was released”, “and mylar was covered” for “and mylar sheet was covered”

Spodoptera litura [3] = experiment: Field experiment, 3-way mixture, Spodoptera litura in tomato crop; conditions: 7 Day after application, flubendiamide 30 GAH, profenofos 480 GAH, Ascophyllum Nodosum 120 GAH, solo or mixtures (1:16, 1:16:4)
Method: as §1
(§4) The Field experiment was conducted at PI Industries Limited, Agricultural Research Station, Hyderabad to evaluate the efficacy of mixture of Flubendiamide, Profenofos and Ascophyllum Nodosum against Spodoptera litura in tomato crop. The tomato seedlings were transplanted and all the recommended packages of practices for tomato farming were followed in the experiment, except for plant protection chemicals. The ratio of Flubendiamide, Profenofos and Ascophyllum Nodosum mixture was 1:16:4 and 1:16:6 and the experiment was carried out in plots of 5×5 m in a randomized block design with three replications for each treatment. The applications were done with the help of a knapsack sprayer having a delivery of about 500 L/hectare. Care was taken to avoid drift of spray solution to adjacent experimental plots. Assessment of all the treatments was done for vigor, phytotoxicity and insect control. Observation on the insect larval count per plot from fifteen randomly selected plants was recorded at one day before and on 7 Day after application. […] Vigor descriptive scale was totally based on visual observations. For vigor comparison among treatments, untreated plots were considered as 100 percent and based on that rating was given to other treatments.

tomato crop [4] = experiment: Field experiment, 3-way mixture, vigor rating of tomato crop; type: in vivo; conditions: for plant vigor compared with control (visual observation): field, tomato crop; for Vigor rating: visual rating, untreated plots = 100 percent, flubendiamide 30 GAH, profenofos 480 GAH, Ascophyllum Nodosum 120 GAH, solo or mixtures (1:16, 1:4, 4:1, 1:16:4)
Description: Vigor descriptive scale was totally based on visual observations.

tomato crop [5] = experiment: Field experiment, 3-way mixture, yield of tomato fruits; type: in vivo; conditions: flubendiamide 30 GAH, profenofos 480 GAH, Ascophyllum Nodosum 120 GAH, solo or mixtures (1:4, 4:1, 1:16:4)
Method: as §1, §4

Helicoverpa armigera [6] = experiment: Whole plant greenhouse assay, binary mixture, Helicoverpa armigera; type: in vivo; conditions: tomato plants, 3rd instar larva, 72 hours; flubendiamide 30 GAH, Ascophyllum nodosum 120 GAH, solo or mixture 30 + 120 (1:4)
Description: (§5) 25 to 30 days old tomato plants were used for the treatments.

Spodoptera litura [7] = experiment: Whole plant greenhouse assay, binary mixture, Spodoptera litura; type: in vivo; conditions: tomato plants, 3rd instar larva, 72 hours; flubendiamide 30 GAH, Ascophyllum nodosum 120 GAH, solo or mixture 30 + 120 (1:4)
Description: as §5

Spodoptera litura [8] = experiment: Field experiment, binary mixture, Spodoptera litura in tomato crop; type: in vivo
Description: (§6) The tomato seedlings were transplanted and all the recommended package of practices for tomato farming was followed in the experiment, except for plant protection chemicals. […] Vigor descriptive scale was totally based on visual observations.

tomato crop [9] = experiment: Field experiment, binary mixture, vigor rating of tomato crop; type: in vivo
Description: (§7) The expected activity for a given combination of two active compounds (binary composition) can be calculated as follows: […]
(§8) In which E represents the expected percentage of inhibition of the disease for the combination of two pesticides at defined doses (for example equal to x and y respectively), x is the percentage of inhibition observed for the disease by the compound (1) at a given dose (equal to x), y is the percentage of inhibition observed for the disease by the compound (2) at a defined dose (equal to y).
as §6

tomato crop [10] = experiment: Field experiment, binary mixture, yield of tomato fruits; type: in vivo; conditions: flubendiamide 30 GAH, Ascophyllum nodosum 120 GAH, solo or mixture 30 + 120 (1:4)
Description: as §7, §8, §6

`CCCSP(=O)(OCC)Oc1ccc(Br)cc1Cl` (stereo not shown) [Profenofos, profenofos] was tested, and the Observed % mortality (Helicoverpa armigera [1]) was 50%, the Observed % mortality (Spodoptera litura [2]) was 52% and the Observed % mortality (Thrips) was 72%. For the same compound, the Observed % mortality (Spodoptera litura [3]) was 55.6%, the “plant vigor compared with control (visual observation)” value (“plant vigor compared with control” below) (tomato crop [4]) was “good plant vigor” and the Vigor rating (tomato crop [4]) was 120. For the same compound, the “Observed yield (ton/hectare) of tomato fruits” value (tomato crop [5]) was 56.95 ton/hectare.

With `Cc1cc(C(F)(C(F)(F)F)C(F)(F)F)ccc1NC(=O)c1cccc(I)c1C(=O)NC(C)(C)CS(C)(=O)=O` [Flubendiamide, 3-iodo-N′-(2-mesyl-1,1-dimethylethyl)-N-{4-[1,2,2,2-tetrafluoro-1-(trifluoromethyl)ethyl]-o-tolyl}phthalamide] the “% mortality” value (Helicoverpa armigera [6]) was 70%, the “% mortality” value (Spodoptera litura [7]) was 70% and the “efficacy against Spodoptera litura in tomato (in words)” value (Spodoptera litura [8]; 30 GAH) was “effectively controlled the insect pests”. For the same compound, the “Spodoptera litura (% control) 7 DAA” value (Spodoptera litura [8]; tomato, 7 DAA, flubendiamide 30 GAH, Ascophyllum nodosum 120 GAH, solo or mixture 30 + 120 (1:4)) was 66.67%, the “Spodoptera litura (% control) 10 DAA” value (Spodoptera litura [8]; tomato, 10 DAA, flubendiamide 30 GAH, Ascophyllum nodosum 120 GAH, solo or mixture 30 + 120 (1:4)) was 70.00% and the “plant vigor compared with control” value (tomato crop [9]; field, tomato crop) was “good plant vigor”. For the same compound, the Vigor (tomato crop [9]; visual rating, untreated plots = 100 percent, flubendiamide 30 GAH, Ascophyllum nodosum 120 GAH, solo or mixture 30 + 120 (1:4)) was 110, the “Yield of tomato fruits, Ton/ha (observed)” value (tomato crop [10]) was 60.16 Ton/ha and the Observed % mortality (Helicoverpa armigera [1]) was 65%. For the same compound, the Observed % mortality (Spodoptera litura [2]) was 72%, the Observed % mortality (Thrips) was 8% and the Observed % mortality (Spodoptera litura [3]) was 72.7%. For the same compound, the “plant vigor compared with control” value (tomato crop [4]) was “good plant vigor”, the Vigor rating (tomato crop [4]) was 125 and the “Observed yield (ton/hectare) of tomato fruits” value (tomato crop [5]) was 64.20 ton/hectare.
